Values after ≈ are worked out from the molar mass of the structure shown.
Tests used:
[1] = Inhibition of mangnese-activated Escherichia coli MetAP
[2] = Inhibition of cobalt-activated Escherichia coli MetAP
Escherichia coli = assay: Antibacterial activity against Escherichia coli AS19; type: functional, organism-based
[3] = Inhibition of ferrous-activated Escherichia coli MetAP

SMILES	IC50 [1] [µM]	IC50 [2] [µM]	IC50 (Escherichia coli) [µM]	MIC (Escherichia coli) [µg/mL]	IC50 [3] [µM]
Oc1ccc(-c2ccccn2)cc1O	> 100	> 100	211	106 (≈ 566 µM)	19.3
C=CCCNC(=O)c1ncoc1-c1cccc(O)c1O	> 100	> 100	97.2	99 (≈ 361 µM)	13.4
Oc1ccc(-c2cn(Cc3ccccc3)nn2)cc1O	19.5	24.6	97.7	79 (≈ 296 µM)	16.1
COc1cnc(-c2cccc(O)c2O)o1	> 100	> 100	228	164 (≈ 792 µM)	11.2
Oc1ccc(-c2ncccn2)cc1O	> 100	> 100	> 250	–	25.5
COC(=O)c1ncoc1-c1cccc(O)c1O	> 100	> 100	120	99 (≈ 421 µM)	14

Second part, the compound after the results:

IC50 [1] [µM]	IC50 [2] [µM]	IC50 (Escherichia coli) [µM]	MIC (Escherichia coli) [µg/mL]	IC50 [3] [µM]	SMILES
> 100	52.6	206	80 (≈ 388 µM)	10.6	Oc1ccc(-c2ncc(F)cn2)cc1O
> 100	> 100	> 250	–	> 100	Cn1ccnc1-c1ccc(O)c(O)c1
> 100	> 100	55	26 (≈ 100 µM)	14.8	O=C(NC1CC1)c1ccc(-c2ccc(O)c(O)c2)o1
11.8	30.1	23.4	19 (≈ 66.1 µM)	0.9	O=C(NC1CCCC1)c1ccc(-c2ccc(O)c(O)c2)o1
> 100	> 100	165	199 (≈ 690 µM)	11	O=C(NC1CCCC1)c1ncoc1-c1cccc(O)c1O
7.9	22.5	43.9	29 (≈ 106 µM)	1.2	O=C(NC1CCC1)c1ccc(-c2ccc(O)c(O)c2)o1
6.7	21.2	50.8	39 (≈ 143 µM)	1	C=CCCNC(=O)c1ccc(-c2ccc(O)c(O)c2)o1
